These compounds were tested against Diacylglycerol kinase alpha (Homo sapiens, UniProt P23743) (assay: DGKα Biochemical Activity Assay).
Description: Ten nanoliters of test compound dissolved in DMSO at various concentrations were dispensed into a 384-well low volume nonbinding service white plates (Corning #3824) using a Labcyte Echo instrument. Recombinant DGKα (Carna Biosciences) in assay buffer (5 μL in 50 mM MOPS [3-(N-morpholino) propanesulfonic acid], pH 7.2; 0.0025% Triton X-100; 1 mM dithiothreitol; 5 mM MgCl2, 200 μM ATP) was added to the compound-containing plate and was incubated for 15 minutes at 25° C. A substrate solution (5 μL in 1.7 mM 1,2-dioleoyl-sn-glycerol [18:1 DAG], 13.5 mM 1-palmitoyl-2-oleoyl-sn-glycero-3-phospho-L-serine [16:0-18:1 PS](POPS), 2 μM CaCl2, 100 mM Octylglucoside (OG), 1 mM DTT) (obtained from Carna Biosciences) diluted in DGK ALPHA assay buffer was then added to start the reaction. Final concentrations were 1 nM DGKα, 100 μM ATP, 1 μM calcium chloride, 0.85 mM 1,2-dioleoyl-sn-glycerol (18:1 DAG), 6.75 mM 1-palmitoyl-2-oleoyl-sn-glycero-3-phospho-L-serine (16:0-18:1 PS) (POPS), 1 μM CaCl2), 50 mM Octylglucoside (OG) and 5 mM MgCl2. The reaction mixture was incubated at 25° C. for 1 hour. ADP-Glo Reagent (10 μL, 10 mM Mg added) provided by the kit was added to each well and incubated at 25° C. for 40 minutes. Then, 20 μL of Kinase Detection Reagent was added and incubated at 25° C. for 40 minutes. Luciferase activity of each well was measured via luminescence on an Envision plate reader (PerkinElmer).

Chain of Diacylglycerol kinase alpha (P23743 whole entry): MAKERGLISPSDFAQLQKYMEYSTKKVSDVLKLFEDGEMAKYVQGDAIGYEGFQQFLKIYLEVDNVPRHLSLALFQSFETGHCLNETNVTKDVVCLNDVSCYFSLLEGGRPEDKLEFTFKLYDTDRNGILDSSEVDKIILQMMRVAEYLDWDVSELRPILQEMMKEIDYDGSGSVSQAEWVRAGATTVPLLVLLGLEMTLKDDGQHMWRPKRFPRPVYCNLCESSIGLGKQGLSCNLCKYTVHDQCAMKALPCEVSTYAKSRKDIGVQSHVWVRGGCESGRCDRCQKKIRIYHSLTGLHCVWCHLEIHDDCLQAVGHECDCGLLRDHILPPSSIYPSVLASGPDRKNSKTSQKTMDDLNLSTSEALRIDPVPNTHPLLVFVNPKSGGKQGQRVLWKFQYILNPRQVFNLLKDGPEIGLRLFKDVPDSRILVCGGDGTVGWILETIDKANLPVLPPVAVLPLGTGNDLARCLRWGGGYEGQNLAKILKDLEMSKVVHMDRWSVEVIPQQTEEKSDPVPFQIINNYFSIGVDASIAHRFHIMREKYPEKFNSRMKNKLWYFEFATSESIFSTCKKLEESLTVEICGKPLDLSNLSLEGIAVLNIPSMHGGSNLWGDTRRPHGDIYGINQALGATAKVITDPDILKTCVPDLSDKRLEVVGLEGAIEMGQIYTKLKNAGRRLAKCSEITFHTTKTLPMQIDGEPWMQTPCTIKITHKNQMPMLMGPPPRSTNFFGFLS

Structure (SMILES) | IC50
Cc1nnc2nc(N3CCCc4c(C#CC5(C(F)(F)F)CC5)cccc43)c3c(F)cncc3n12 [US11926628, Example 41] | 7.82 nM
CN(c1cccc(C#CC(C)(C)C)c1)c1nc2nncn2c2cnccc12 [US11926628, Example 60] | 61.5 nM
Cc1nnc2nc(N3CCCCc4c(C#CC(C)(C)C#N)cccc43)c3c(F)cncc3n12 [US11926628, Example 64] | 5.79 nM
CN(C)c1ccc2c(N(C)c3cccc(C#CC(C)(C)C)c3)nc3nncn3c2n1 [US11926628, Example 110] | 930 nM
COc1ccc(-c2cccc(N(C)c3nc4nncn4c4nc(N(C)C)ccc34)c2)cn1 [US11926628, Example 111] | 375 nM
CN(C)c1ccc2c(N(C)c3cccc(-c4ccc(C5CC5)cc4)c3)nc3nncn3c2n1 [US11926628, Example 112] | 66.7 nM
CCOc1ccc2c(N(C)c3cccc(-c4ccc(C5CC5)cc4)c3)nc3nncn3c2n1 [US11926628, Example 113] | 702 nM
